Measurements from ChEMBL document CHEMBL3045835, “Comparative study of conventional and microwave-assisted synthesis of some Schiff bases and their potential as antimicrobial agents” (2012).
Converted amounts (≈) assume the structure as drawn.

Tests used:
Type in all cases: functional
[1] = system: Pseudomonas aeruginosa; assay: Antibacterial activity against Pseudomonas aeruginosa MTCC 424 at 500 ug/ml after 18 hr by cup-plate method; details: MTCC 424, 18 h, read-out: DIZ
[2] = system: Pseudomonas aeruginosa; assay: Antibacterial activity against Pseudomonas aeruginosa MTCC 424 at 200 ug/ml after 18 hr by cup-plate method; details: MTCC 424, 18 h, read-out: DIZ
[3] = system: Pseudomonas aeruginosa; assay: Antibacterial activity against Pseudomonas aeruginosa MTCC 424 at 100 ug/ml after 18 hr by cup-plate method; details: MTCC 424, 18 h, read-out: DIZ
[4] = system: Micrococcus luteus; assay: Antibacterial activity against Micrococcus luteus MTCC 1538 at 1500 ug/ml after 18 hr by cup-plate method; details: MTCC 1538, 18 h, read-out: DIZ
[5] = system: Micrococcus luteus; assay: Antibacterial activity against Micrococcus luteus MTCC 1538 at 1000 ug/ml after 18 hr by cup-plate method; details: MTCC 1538, 18 h, read-out: DIZ
[6] = system: Micrococcus luteus; assay: Antibacterial activity against Micrococcus luteus MTCC 1538 at 500 ug/ml after 18 hr by cup-plate method; details: MTCC 1538, 18 h, read-out: DIZ
[7] = system: Micrococcus luteus; assay: Antibacterial activity against Micrococcus luteus MTCC 1538 at 200 ug/ml after 18 hr by cup-plate method; details: MTCC 1538, 18 h, read-out: DIZ
[8] = system: Micrococcus luteus; assay: Antibacterial activity against Micrococcus luteus MTCC 1538 at 100 ug/ml after 18 hr by cup-plate method; details: MTCC 1538, 18 h, read-out: DIZ
[9] = system: Bacillus pumilus; assay: Antibacterial activity against Bacillus pumilus MTCC 1456 at 1500 ug/ml after 18 hr by cup-plate method; details: MTCC 1456, 18 h, read-out: DIZ
[10] = system: Bacillus pumilus; assay: Antibacterial activity against Bacillus pumilus MTCC 1456 at 1000 ug/ml after 18 hr by cup-plate method; details: MTCC 1456, 18 h, read-out: DIZ
[11] = system: Bacillus pumilus; assay: Antibacterial activity against Bacillus pumilus MTCC 1456 at 500 ug/ml after 18 hr by cup-plate method; details: MTCC 1456, 18 h, read-out: DIZ
[12] = system: Bacillus pumilus; assay: Antibacterial activity against Bacillus pumilus MTCC 1456 at 200 ug/ml after 18 hr by cup-plate method; details: MTCC 1456, 18 h, read-out: DIZ
[13] = system: Bacillus pumilus; assay: Antibacterial activity against Bacillus pumilus MTCC 1456 at 100 ug/ml after 18 hr by cup-plate method; details: MTCC 1456, 18 h, read-out: DIZ
[14] = system: Bacillus subtilis; assay: Antibacterial activity against Bacillus subtilis MTCC 441 at 1000 ug/ml after 18 hr by cup plate method; details: MTCC 441, 18 h, read-out: DIZ
[15] = system: Bacillus subtilis; assay: Antibacterial activity against Bacillus subtilis MTCC 441 at 1500 ug/ml after 18 hr by cup plate method; details: MTCC 441, 18 h, read-out: DIZ
[16] = system: Bacillus subtilis; assay: Antibacterial activity against Bacillus subtilis MTCC 441 at 500 ug/ml after 18 hr by cup plate method; details: MTCC 441, 18 h, read-out: DIZ
[17] = system: Bacillus subtilis; assay: Antibacterial activity against Bacillus subtilis MTCC 441 at 200 ug/ml after 18 hr by cup plate method; details: MTCC 441, 18 h, read-out: DIZ
[18] = system: Bacillus subtilis; assay: Antibacterial activity against Bacillus subtilis MTCC 441 at 100 ug/ml after 18 hr by cup plate method; details: MTCC 441, 18 h, read-out: DIZ
[19] = system: Staphylococcus aureus; assay: Antibacterial activity against Staphylococcus aureus MTCC 1430 at 1500 ug/ml after 18 hr by cup-plate method; details: MTCC 1430, 18 h, read-out: DIZ
[20] = system: Staphylococcus aureus; assay: Antibacterial activity against Staphylococcus aureus MTCC 1430 at 1000 ug/ml after 18 hr by cup-plate method; details: MTCC 1430, 18 h, read-out: DIZ
[21] = system: Staphylococcus aureus; assay: Antibacterial activity against Staphylococcus aureus MTCC 1430 at 500 ug/ml after 18 hr by cup-plate method; details: MTCC 1430, 18 h, read-out: DIZ
[22] = system: Staphylococcus aureus; assay: Antibacterial activity against Staphylococcus aureus MTCC 1430 at 200 ug/ml after 18 hr by cup-plate method; details: MTCC 1430, 18 h, read-out: DIZ
[23] = system: Staphylococcus aureus; assay: Antibacterial activity against Staphylococcus aureus MTCC 1430 at 100 ug/ml after 18 hr by cup-plate method; details: MTCC 1430, 18 h, read-out: DIZ
[24] = system: Penicillium chrysogenum; assay: Antifungal activity against Penicillium chrysogenum MTCC 161 after 24 hr by broth dilution method; details: MTCC 161, 24 h
[25] = system: Aspergillus niger; assay: Antifungal activity against Aspergillus niger MTCC 2546 after 24 hr by broth dilution method; details: MTCC 2546, 24 h
[26] = system: Escherichia coli; assay: Antibacterial activity against Escherichia coli MTCC 1573 after 24 hr by broth dilution method; details: MTCC 1573, 24 h
[27] = system: Pseudomonas fluorescens; assay: Antibacterial activity against Pseudomonas fluorescens MTCC 2421 after 24 hr by broth dilution method; details: MTCC 2421, 24 h
[28] = system: Pseudomonas aeruginosa; assay: Antibacterial activity against Pseudomonas aeruginosa MTCC 424 after 24 hr by broth dilution method; details: MTCC 424, 24 h
[29] = system: Micrococcus luteus; assay: Antibacterial activity against Micrococcus luteus MTCC 1538 after 24 hr by broth dilution method; details: MTCC 1538, 24 h
[30] = system: Bacillus pumilus; assay: Antibacterial activity against Bacillus pumilus MTCC 1456 after 24 hr by broth dilution method; details: MTCC 1456, 24 h
[31] = system: Staphylococcus aureus; assay: Antibacterial activity against Staphylococcus aureus MTCC 1430 after 24 hr by broth dilution method; details: MTCC 1430, 24 h
[32] = system: Bacillus subtilis; assay: Antibacterial activity against Bacillus subtilis MTCC 441 after 24 hr by broth dilution method; details: MTCC 441, 24 h
[33] = system: Pseudomonas fluorescens; assay: Antibacterial activity against Pseudomonas fluorescens MTCC 2421 at 1000 ug/ml after 18 hr by cup-plate method; details: MTCC 2421, 18 h, read-out: DIZ
[34] = system: Pseudomonas fluorescens; assay: Antibacterial activity against Pseudomonas fluorescens MTCC 2421 at 1500 ug/ml after 18 hr by cup-plate method; details: MTCC 2421, 18 h, read-out: DIZ
[35] = system: Pseudomonas fluorescens; assay: Antibacterial activity against Pseudomonas fluorescens MTCC 2421 at 500 ug/ml after 18 hr by cup-plate method; details: MTCC 2421, 18 h, read-out: DIZ
[36] = system: Pseudomonas fluorescens; assay: Antibacterial activity against Pseudomonas fluorescens MTCC 2421 at 200 ug/ml after 18 hr by cup-plate method; details: MTCC 2421, 18 h, read-out: DIZ
[37] = system: Penicillium chrysogenum; assay: Antifungal activity against Penicillium chrysogenum MTCC 161 at 1500 ug/ml after 18 hr by cup-plate method; details: MTCC 161, 18 h, read-out: DIZ
[38] = system: Penicillium chrysogenum; assay: Antifungal activity against Penicillium chrysogenum MTCC 161 at 1000 ug/ml after 18 hr by cup-plate method; details: MTCC 161, 18 h, read-out: DIZ
[39] = system: Penicillium chrysogenum; assay: Antifungal activity against Penicillium chrysogenum MTCC 161 at 500 ug/ml after 18 hr by cup-plate method; details: MTCC 161, 18 h, read-out: DIZ
[40] = system: Penicillium chrysogenum; assay: Antifungal activity against Penicillium chrysogenum MTCC 161 at 200 ug/ml after 18 hr by cup-plate method; details: MTCC 161, 18 h, read-out: DIZ
[41] = system: Penicillium chrysogenum; assay: Antifungal activity against Penicillium chrysogenum MTCC 161 at 100 ug/ml after 18 hr by cup-plate method; details: MTCC 161, 18 h, read-out: DIZ
[42] = system: Aspergillus niger; assay: Antifungal activity against Aspergillus niger MTCC 2546 at 1000 ug/ml after 18 hr by cup-plate method; details: MTCC 2546, 18 h, read-out: DIZ
[43] = system: Aspergillus niger; assay: Antifungal activity against Aspergillus niger MTCC 2546 at 1500 ug/ml after 18 hr by cup-plate method; details: MTCC 2546, 18 h, read-out: DIZ
[44] = system: Aspergillus niger; assay: Antifungal activity against Aspergillus niger MTCC 2546 at 500 ug/ml after 18 hr by cup-plate method; details: MTCC 2546, 18 h, read-out: DIZ
[45] = system: Aspergillus niger; assay: Antifungal activity against Aspergillus niger MTCC 2546 at 100 ug/ml after 18 hr by cup-plate method; details: MTCC 2546, 18 h, read-out: DIZ
[46] = system: Aspergillus niger; assay: Antifungal activity against Aspergillus niger MTCC 2546 at 200 ug/ml after 18 hr by cup-plate method; details: MTCC 2546, 18 h, read-out: DIZ
[47] = system: Escherichia coli; assay: Antibacterial activity against Escherichia coli MTCC 1573 at 1500 ug/ml after 18 hr by cup-plate method; details: MTCC 1573, 18 h, read-out: DIZ
[48] = system: Escherichia coli; assay: Antibacterial activity against Escherichia coli MTCC 1573 at 500 ug/ml after 18 hr by cup-plate method; details: MTCC 1573, 18 h, read-out: DIZ
[49] = system: Escherichia coli; assay: Antibacterial activity against Escherichia coli MTCC 1573 at 1000 ug/ml after 18 hr by cup-plate method; details: MTCC 1573, 18 h, read-out: DIZ
[50] = system: Escherichia coli; assay: Antibacterial activity against Escherichia coli MTCC 1573 at 200 ug/ml after 18 hr by cup-plate method; details: MTCC 1573, 18 h, read-out: DIZ
[51] = system: Escherichia coli; assay: Antibacterial activity against Escherichia coli MTCC 1573 at 100 ug/ml after 18 hr by cup-plate method; details: MTCC 1573, 18 h, read-out: DIZ
[52] = system: Pseudomonas fluorescens; assay: Antibacterial activity against Pseudomonas fluorescens MTCC 2421 at 100 ug/ml after 18 hr by cup-plate method; details: MTCC 2421, 18 h, read-out: DIZ
[53] = system: Pseudomonas aeruginosa; assay: Antibacterial activity against Pseudomonas aeruginosa MTCC 424 at 1500 ug/ml after 18 hr by cup-plate method; details: MTCC 424, 18 h, read-out: DIZ
[54] = system: Pseudomonas aeruginosa; assay: Antibacterial activity against Pseudomonas aeruginosa MTCC 424 at 1000 ug/ml after 18 hr by cup-plate method; details: MTCC 424, 18 h, read-out: DIZ

Compound: O=c1c(/C=N/c2nc[nH]n2)coc2ccccc12
- zone of inhibition at 500 µg/mL [1]: 16 mm
- zone of inhibition at 200 µg/mL [2]: 15 mm
- zone of inhibition at 100 µg/mL [3]: 14 mm
- zone of inhibition at 1500 µg/mL [4]: 23 mm
- zone of inhibition at 1000 µg/mL [5]: 18 mm
- zone of inhibition at 500 µg/mL [6]: 16 mm
- zone of inhibition at 200 µg/mL [7]: 15 mm
- zone of inhibition at 100 µg/mL [8]: 11 mm
- zone of inhibition at 1500 µg/mL [9]: 21 mm
- zone of inhibition at 1000 µg/mL [10]: 19 mm
- zone of inhibition at 500 µg/mL [11]: 17 mm
- zone of inhibition at 200 µg/mL [12]: 16 mm
- zone of inhibition at 100 µg/mL [13]: 14 mm
- zone of inhibition at 1000 µg/mL [14]: 18 mm
- zone of inhibition at 1500 µg/mL [15]: 20 mm
- zone of inhibition at 500 µg/mL [16]: 17 mm
- zone of inhibition at 200 µg/mL [17]: 16 mm
- zone of inhibition at 100 µg/mL [18]: 12 mm
- zone of inhibition at 1500 µg/mL [19]: 19 mm
- zone of inhibition at 1000 µg/mL [20]: 17 mm
- zone of inhibition at 500 µg/mL [21]: 14 mm
- zone of inhibition at 200 µg/mL [22]: 13 mm
- zone of inhibition at 100 µg/mL [23]: 11 mm
- MIC [24]: 200 µg/mL (≈ 833 µM)
- MIC [25]: 200 µg/mL (≈ 833 µM)
- MIC [26]: 400 µg/mL (≈ 1670 µM)
- MIC [27]: 200 µg/mL (≈ 833 µM)
- MIC [28]: 300 µg/mL (≈ 1250 µM)
- MIC [29]: 300 µg/mL (≈ 1250 µM)
- MIC [30]: 400 µg/mL (≈ 1670 µM)
- MIC [31]: 400 µg/mL (≈ 1670 µM)
- MIC [32]: 400 µg/mL (≈ 1670 µM)
- zone of inhibition at 1000 µg/mL [33]: 19 mm
- zone of inhibition at 1500 µg/mL [34]: 20 mm
- zone of inhibition at 500 µg/mL [35]: 17 mm
- zone of inhibition at 200 µg/mL [36]: 15 mm
- zone of inhibition at 1500 µg/mL [37]: 22 mm
- zone of inhibition at 1000 µg/mL [38]: 20 mm
- zone of inhibition at 500 µg/mL [39]: 19 mm
- zone of inhibition at 200 µg/mL [40]: 17 mm
- zone of inhibition at 100 µg/mL [41]: 15 mm
- zone of inhibition at 1000 µg/mL [42]: 20 mm
- zone of inhibition at 1500 µg/mL [43]: 22 mm
- zone of inhibition at 500 µg/mL [44]: 19 mm
- zone of inhibition at 100 µg/mL [45]: 16 mm
- zone of inhibition at 200 µg/mL [46]: 18 mm
- zone of inhibition at 1500 µg/mL [47]: 18 mm
- zone of inhibition at 500 µg/mL [48]: 15 mm
- zone of inhibition at 1000 µg/mL [49]: 16 mm
- zone of inhibition at 200 µg/mL [50]: 14 mm
- zone of inhibition at 100 µg/mL [51]: 13 mm
- zone of inhibition at 100 µg/mL [52]: 13 mm
- zone of inhibition at 1500 µg/mL [53]: 20 mm
- zone of inhibition at 1000 µg/mL [54]: 18 mm
